Experiments:
HeLa cells = experiment: Labeling of organelle-localized protein tags in HeLa cells without washing; format: cell-based; conditions: 0.2 μM probe, 2 hrs, no washing
From the text: To verify that probes 1, 21, 48, 60, 66 and 77 can be used to label target proteins located by different organelles, HeLa cells were taken as an example to detect the effect of probes on labeling different subcellular proteins. HeLa cells were implanted 5000 cells per well in a 96-well glass-bottom cell culture plate. 14 hrs later, the cells were transfected with the plasmids encoding different organelle localized protein tags using Lipo2000; the original medium was removed 24 hrs after transfection, washed with a phenol-free red DMEM medium twice, and incubated with a phenol-free red medium containing 0.2 μM probes for 2 hrs, and then the cell labeling effects were detected by imaging with a leica TCS-8 confocal microscopy.

fusion protein CX43-SNAP = experiment: Tracing assembly of CX43-SNAP intercellular channels in HeLa cells; format: cell-based; conditions: probe 21 2 μM 1 hour first, then probe 1 1 μM
From the text: To verify that the probe of the present invention can be used to monitor the assembly and degradation process of biological macromolecules in mammalian cells in real time, the process of tracing the assembly of intercellular protein CX43 to form intercellular channels in mammalian cells by the probe was detected by taking HeLa cells as an example. The C-terminal of CX43 gene was fused with SNAP gene, and HeLa cell line with stable expression of fusion protein CX43-SNAP was constructed and obtained by lentivirus infection technology. HeLa-CX43-SNAP cell lines were implanted in a 20 mm glass-bottom cell culture dish 10 hrs before the probe labeling. To conduct labeling, a phenol-free red DMEM medium was first used to dilute the probe 21 to 2 μM to replace the original cell culture medium. Cells were incubated in a carbon dioxide incubator at 37° C. for 1 hour. The cells were then washed twice using a fresh phenol-free red DMEM medium, with unbound probe 21 removed at 2-minute intervals. Then, DMEM phenol-free red culture medium containing 1 μM probe 1 was added to label cells. Leica SP8 confocal microscopy was used to monitor for a long time the fluorescence intensity and position changes of labeled cell samples at the corresponding fluorescence channels of probes 21 and 1, as shown in FIGS. 17A and 17B, respectively. […]

[1] = Viscosity responsiveness: fluorescence emission spectra of probes in glycerol and methanol; format: physicochemical; conditions: for Emission wavelength: excited at maximum excitation wavelength of each probe; for Fluorescence ratio in glycerol to methanol: probe 1×10^−5 M
Outline: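 Each probe, from a 1×10^−2 M DMSO stock, was diluted to a final 1×10^−5 M in glycerol and in methanol. Fluorescence emission spectra were then recorded under identical conditions at each probe's maximum excitation wavelength.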

SNAP protein tags = target: T1, SNAP protein tags (Homo sapiens, UniProt P16455, A127T/A154D/C150Q/C62A/E30R/G131K/G132T/G153L/K125A/K32I/L33F/M134L/N157G/Q115S/Q116H/R128A/R135S/S151G/S152D/S159E); experiment: Fluorescence activation of probe after incubation with corresponding protein tag (SNAP); format: biochemical; conditions: probe 5 μM, protein tag 10 μM, 37° C., 1 hr
T1 sequence (P16455 1-182 E30R/K32I/L33F/C62A/Q115S/Q116H/K125A/A127T/R128A/G131K/G132T/M134L/R135S/C150Q/S151G/S152D/G153L/A154D/N157G/S159E): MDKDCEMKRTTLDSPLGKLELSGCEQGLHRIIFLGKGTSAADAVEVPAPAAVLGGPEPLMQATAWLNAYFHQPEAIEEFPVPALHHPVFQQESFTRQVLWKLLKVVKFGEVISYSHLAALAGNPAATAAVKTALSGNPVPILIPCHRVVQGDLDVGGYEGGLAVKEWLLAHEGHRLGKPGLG
Outline: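 Probe (5 μM final) mixed with CLIP or SNAP protein tag (10 μM final) and incubated 1 hr at 37° C. Fluorescence intensity change measured by fluorescence spectrophotometer, with quantum yield of tag-bound probe determined.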

[2] = test system: HeLa cells with stable expression of protein tags; experiment: Labeling of HeLa cells expressing protein tags vs HeLa-WT cells, confocal imaging; format: cell-based; conditions: probe 5 μM, 37° C., 2 hrs
Protocol: HeLa cells with stable expression of protein tags and HeLa-WT cells (HeLa primitive cells, with no protein tag expressed) were implanted in a 14 mm glass-bottom 96-well cell culture plate and stabilized for 10 hrs. Probes 1, 15, 21, 30, 56, 60, 63, 88 were added to the media, respectively and diluted to 5 μMs. The cells were incubated in a carbon dioxide incubator at 37° C. for 2 hrs, and then a Leica TPS-8 confocal microscopy was used to image the fluorescent changes of the labeled cells. […] However, for HeLa cells with protein tags expressed shown by group A in FIG. 12, strong fluorescent signals could be detected, which are nearly 300 times stronger.

[3] = Fluorescence of free probe prior to binding to a protein tag; format: physicochemical
SNAP-IAA17-H2B protein = experiment: Fluorescence change on AID-induced degradation of SNAP-IAA17-H2B in HeLa cells; format: cell-based; conditions: 1 μM probe; 120 min after indoleacetic acid
From the text: To verify the correlation between the fluorescent activation of the probe of the present invention and the existence of proteins, SNAP protein in mammalian cells was taken as an example, and the fluorescence changes of SNAP protein binding probes after protein degradation were detected in HeLa cells by taking AID degradation system as an example. Firstly, HeLa cells were implanted 20,000/cm^2 in a 20 mm glass-bottom cell culture dish, and 14 hrs later, plasmids pcdna3.1-TIR1 and pcdna3.1-SNAP-IAA17-H2B were transfected by invitrogen's lipofectmain2000 transfection reagent. 24 hrs after the cell transfection, the original cell culture medium was replaced with a phenol-free red DMEM medium containing 1 μM of probe 21 to label the cells. The cell samples were incubated in a carbon dioxide incubator at 37° C. for 1 hour. After the labeling was completed, the fluorescence signal of labeled cells was detected by imaging with a Leica SP8 laser confocal microscopy, and indoleacetic acid (IAA) was added to induce SNAP-IAA17-H2B protein to degrade, and the cell fluorescence changes were detected during the protein degradation. […] When proteins exist, the fluorescence is activated, and when proteins are degraded, the fluorescence disappears, which can be used to track and monitor the degradation process of target proteins.

CLIP protein tags = experiment: Fluorescence activation of probe after incubation with corresponding protein tag (CLIP); format: biochemical; conditions: probe 5 μM, protein tag 10 μM, 37° C., 1 hr
Protocol: Probes were mixed with corresponding protein tags to obtain mixed samples, in which the final probe concentration was 5 μM, and the final protein tag concentration was 10 μM. The mixed samples were incubated 37° C. for 1 hr, fluorescence spectrophotometer was used to detect the change in fluorescence intensity, and the results are shown in Table 1.
From the quantum yield of probe bound to protein tag, after reacting with the protein tags, the probes of the Examples could be detected to have significant signal enhancement in corresponding excitation transmission channels, the fluorescence activation multiple reached several hundreds to a thousand or more, and the brightness was high, which illustrates that after the probes of the Examples are bound to the protein tags, fluorescence of the probes can be activated, and the probes have good fluorescent molecular switching properties. In contrast, though the fluorescence of the reference probes could also be activated, the quantum yield of activated fluorescence was very low, and the brightness was very poor. In particular, in view of comparison results between probe 98 and reference probe 99, probe 101 and reference probe 102, probe 103 and reference probe 104, probe 105 and reference probe 106, probe 107 and reference probe 108, probe 109 and reference probe 110, probe 111 and reference probe 112, probe 114 and reference probe 115, probe 117 and reference probe 118, probe 120 and reference probe 121 in Table 1, for the same fluorescent dye, when the ligand is connected to the electron donor part of the fluorescent dye, the fluorescence activation brightness of the probe is much higher than the reference probe in which ligand is connected to the electron acceptor part of the fluorescent dye.

SNAP protein tag [4] = experiment: In vivo labeling of SNAP protein tag expressed in mouse liver; conditions: mice, tail vein injection, 6 hrs after probe
Protocol: (§1) First, a SNAP protein tag expressing plasmid, pcdna3.1-SNAP (sample group), and a control plasmid without SNAP protein tag expressing, pcdna3.1-CAT (control group), were introduced into mice. This method dissolves plasmids in a large volume of solution and rapidly injects them into mice through tail vein injection. The mouse liver and kidneys absorb DNA and then express the target protein. 20 hrs after plasmid injection, 0.4 μM probe 88 dissolved in 200 μl PBS was injected into mice through tail vein injection to label the SNAP protein tag. 6 hrs later, the mice were dissected, and the fluorescence differences in the liver parts of different mouse samples were detected by KODAK multi-spectral in vivo imaging system. The liver fluorescence of the control plasmid pcdna3.1-CAT injected with probe 88 was very low, close to the background fluorescence level of the blank liver without the probe, while the liver of SNAP plasmid pcdna3.1-SNAP injected with probe 88 had strong fluorescence, and the signal intensity was more than 20 times higher than that of the control group.

SNAP protein tag [5] = target: T2, SNAP protein tag (Homo sapiens, UniProt P16455, A127T/A154D/C150Q/C62A/E30R/G131K/G132T/G153L/K125A/K32I/L33F/M134L/N157G/Q115S/Q116H/R128A/R135S/S151G/S152D/S159E); experiment: as above; conditions: mice, tail vein injection, 6 hrs after probe
T2 construct: expressed in transfected cells; host or cells: mouse liver after tail-vein plasmid injection
T2 sequence (P16455 1-182 E30R/K32I/L33F/C62A/Q115S/Q116H/K125A/A127T/R128A/G131K/G132T/M134L/R135S/C150Q/S151G/S152D/G153L/A154D/N157G/S159E): T1 sequence (P16455 1-182 E30R/K32I/L33F/C62A/Q115S/Q116H/K125A/A127T/R128A/G131K/G132T/M134L/R135S/C150Q/S151G/S152D/G153L/A154D/N157G/S159E)
Protocol: as §1

SMILES | Emission wavelength [1] | Fluorescence ratio in glycerol to methanol [1] | Quantum yield of free probe [3] | Labeling of subcellular organelle structures (HeLa cells) | Fluorescence signal at intercellular channels (fusion protein CX43-SNAP) | Fluorescence activation multiple (SNAP protein tags) | Quantum yield of probe bound to protein tag (SNAP protein tags) | Fluorescence signal in HeLa-WT cells (no protein tag expressed) [2] | Fluorescent signal in HeLa cells with protein tags expressed, relative to HeLa-WT [2] | Fluorescence signal after indoleacetic acid-induced protein degradation (SNAP-IAA17-H2B protein) | Fluorescence activation multiple (CLIP protein tags) | Quantum yield of probe bound to protein tag (CLIP protein tags) | Liver fluorescence of control plasmid pcdna3.1-CAT group (SNAP protein tag [4]) | Liver fluorescence signal intensity of pcdna3.1-SNAP group relative to control group (SNAP protein tag [5])
CN(CCOC(=O)NCc1ccc(COc2nc(N)nc3[nH]cnc23)cc1)c1ccc(/C=C(\C#N)C(=O)OC(C)(C)C)cc1 [probe 1] | 480 nm | 560 | <0.001 | clearly display a variety of subcellular organelle structures without washing | appeared and gradually increased at the edge of intercellular channels | 360 | 0.35 | no corresponding fluorescence signal was detected | ~300 times | – | – | – | – | –
CN(CCOC(=O)NCc1ccc(COc2nc(N)nc3[nH]cnc23)cc1)c1cc2sc(/C=C(\C#N)C(=O)OC(C)(C)C)cc2s1 [probe 21] | 555 nm | 1481 | <0.001 | clearly display a variety of subcellular organelle structures without washing | long-columnar specific fluorescence signal between two cells | 560 | 0.48 | no corresponding fluorescence signal was detected | ~300 times | basically invisible | – | – | – | –
CN(CCOC(=O)NCc1ccc(COc2nccc(N)n2)cc1)c1ccc2nc(/C=C(\C#N)c3nc4ccccc4s3)oc2c1 [probe 48] | 625 nm | 180 | <0.001 | clearly display a variety of subcellular organelle structures without washing | – | – | – | – | – | – | 428 | 0.16 | – | –
CC1=CC(C)(C)N(CCOC(=O)NCc2ccc(COc3nc(N)nc4[nH]cnc34)cc2)c2ccc(/C=C(\C#N)c3nc4ccccc4o3)cc21 [probe 88] | 595 nm | 298 | <0.001 | – | – | 621 | 0.29 | no corresponding fluorescence signal was detected | ~300 times | – | – | – | very low | more than 20 times

More lines, main results first:

Emission wavelength [1] | Fluorescence ratio in glycerol to methanol [1] | Quantum yield of free probe [3] | SMILES | Labeling of subcellular organelle structures (HeLa cells) | Fluorescence signal at intercellular channels (fusion protein CX43-SNAP) | Fluorescence activation multiple (SNAP protein tags) | Quantum yield of probe bound to protein tag (SNAP protein tags) | Fluorescence signal in HeLa-WT cells (no protein tag expressed) [2] | Fluorescent signal in HeLa cells with protein tags expressed, relative to HeLa-WT [2] | Fluorescence signal after indoleacetic acid-induced protein degradation (SNAP-IAA17-H2B protein) | Fluorescence activation multiple (CLIP protein tags) | Quantum yield of probe bound to protein tag (CLIP protein tags) | Liver fluorescence of control plasmid pcdna3.1-CAT group (SNAP protein tag [4]) | Liver fluorescence signal intensity of pcdna3.1-SNAP group relative to control group (SNAP protein tag [5])
620 nm | 1199 | 0.0011 | CN(CCOC(=O)NCc1ccc(COc2nc(N)nc3[nH]cnc23)cc1)c1cc2sc3cc(/C=C(\C#N)C(=O)OC(C)(C)C)sc3c2s1 [probe 60] | clearly display a variety of subcellular organelle structures without washing | – | 751 | 0.81 | no corresponding fluorescence signal was detected | ~300 times | – | – | – | – | –
620 nm | 386 | <0.001 | CN(CCOC(=O)NCc1ccc(COc2nc(N)nc3[nH]cnc23)cc1)c1ccc(-c2ccc(/C=C(\C#N)C(=O)OC(C)(C)C)s2)cc1 [probe 66] | clearly display a variety of subcellular organelle structures without washing | – | 512 | 0.37 | – | – | – | – | – | – | –
655 nm | 279 | 0.0014 | CN(CCOC(=O)NCc1ccc(COc2nc(N)nc3[nH]cnc23)cc1)c1ccc(-c2ccc(/C=C(\C#N)C(=O)OC(C)(C)C)s2)s1 [probe 77] | clearly display a variety of subcellular organelle structures without washing | – | 268 | 0.38 | – | – | – | – | – | – | –
